Substitutions are numbered along the chain they refer to.
What was measured:
Format in all cases: cell-based
[1] = target: T1, GPR139 (Homo sapiens, UniProt Q6DWJ6); experiment: Fluo-4 calcium mobilization assay, agonist mode, concentration-response curves in CHO-GPR139 cells
T1 construct: host or cells: CHO-k1
T1 sequence (Q6DWJ6 1-353): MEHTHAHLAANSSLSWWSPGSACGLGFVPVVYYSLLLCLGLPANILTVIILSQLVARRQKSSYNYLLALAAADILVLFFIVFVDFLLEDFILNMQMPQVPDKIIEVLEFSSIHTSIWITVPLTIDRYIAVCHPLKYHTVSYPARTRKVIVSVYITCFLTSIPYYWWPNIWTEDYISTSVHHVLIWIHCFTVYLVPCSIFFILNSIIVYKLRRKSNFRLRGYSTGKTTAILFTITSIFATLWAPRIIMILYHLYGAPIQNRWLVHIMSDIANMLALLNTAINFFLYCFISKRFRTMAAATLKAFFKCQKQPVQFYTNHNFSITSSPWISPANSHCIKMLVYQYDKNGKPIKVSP
Description: All compounds were tested on a CHO-k1 cell line stably expressing GPR139 (CHO-GPR139)[11] kindly provided by H. Lundbeck A/S, Denmark. GPR139-specific responses were assessed using a CHO-k1 cell line stably expressing the muscarinic acetylcholine receptor M1 (CHO-M1) (The Missouri S&T cDNA Resource Center, # CEM100TN00). The CHO-GPR139 cells were grown in Dulbecco’s modified Eagle’s medium (DMEM) F12-Kaighn’s (ThermoFisher Scientific # 21127) supplemented with 10% dialyzed fetal bovine serum (United States origin; ThermoFisher Scientific # 26400), 1% GlutaMAX-I (100X) (ThermoFisher Scientific # 35050061), and 100 units/mL penicillin and 100 µg/mL streptomycin (ThermoFisher Scientific # 15140122) and 1 mg/mL geneticin (ThermoFisher Scientific # 11811031). The CHO-M1 cells were grown in Ham’s F12 (ThermoFisher Scientific # 21765) supplemented with 10% fetal bovine serum (South American origin; ThermoFisher Scientific # 10270) + 100 units/mL penicillin and streptomycin and 0.25 mg/mL geneticin.
The Fluo-4 Ca^2+-assay was performed as described previously, with minor modifications. After 1 hour incubation with the Fluo-4 dye, the CHO-GPR139 cells were washed with 100 μL HEPES buffer (Hank’s Balanced Salt Solution (HBBS, ThermoFisher Scientific # 14175053) supplemented with 20 mM HEPES, 1 mM MgCl2, 1 mM CaCl2, pH = 7.4) and the compound library was then added in concentrations between 25–63 μM dissolved in HEPES buffer (supplemented with 2.5 mM probenecid and 1% DMSO) and pre-incubated for 10 min at 37 °C. 33 μL of 3.2 μM 1a were added automatically after baseline measurements. […] This set-up allowed us to identify both antagonists and agonists (Fig. 2).
Each compound, for which a concentration response curve was made, was tested at least three times in duplicate measurements. After the incubation with the Fluo-4 dye and a wash, 100 μL HEPES buffer (supplemented with 2.5 mM probenecid) was added to each well and incubated for 10 minutes at 37 °C before recording. 33 μL of compounds (4× concentrated) were added automatically after baseline measurements.
The Ca^2+ and ERK responses were normalized as indicated and the concentration response curves were fitted by Prism 6 software (GraphPad) using nonlinear regression in a sigmoidal model with variable slope, as has been previously described.

[2] = target: T2, GPR139 F109A^3×33 (Homo sapiens, UniProt Q6DWJ6, F109A); experiment: Ca2+ mobilization on GPR139 mutant F109A
T2 construct: myc (N); expressed in transfected cells
T2 sequence (Q6DWJ6 1-353 F109A): T1 sequence (Q6DWJ6 1-353) with F109A
Description: (§1) Figure 4 Ca^2+ mobilization concentration-response curves of AC4 on GPR139 wild-type (WT) and mutants. Data is shown from a representative experiment (mean ± S.D.) out of three independent experiments performed in duplicate. Data is normalized to the Ca^2+ response of buffer (0%) and 100 μM AC4 (100%) on myc-GPR139(WT). Residue numbering in superscript is according to GPCRdb numbering system.
(§2) The mutational studies were performed as previously described.

[3] = target: T3, GPR139 F109L^3×33 (Homo sapiens, UniProt Q6DWJ6, F109L); experiment: Ca2+ mobilization on GPR139 mutant F109L; settings: highest tested concentration (100 μM), n = 3
T3 construct: myc (N); expressed in transfected cells
T3 sequence (Q6DWJ6 1-353 F109L): T1 sequence (Q6DWJ6 1-353) with F109L
Description: as §1, §2

[4] = target: T4, GPR139 N271A^7×38 (Homo sapiens, UniProt Q6DWJ6, N271A); experiment: Ca2+ mobilization on GPR139 mutant N271A
T4 construct: myc (N); expressed in transfected cells
T4 sequence (Q6DWJ6 1-353 N271A): T1 sequence (Q6DWJ6 1-353) with N271A
Description: as §1, §2

Emax ([1]; CHO-GPR139 cells, normalized to buffer (0%) and 8 μM 1a (100%)): 116 ± 3%
EC50 ([1]; CHO-GPR139 cells, read-out: pEC50 ± S.E.M. (converted)): 219 nM
Emax ([1]; Table S1, normalized to compound 1a): 115 ± 3%
Ca2+ response [2]: no measurable Ca^2+ response
Ca2+ response [3]: 17 ± 2 % of WT
Ca2+ response [4]: no measurable Ca^2+ response
Compound: O=C(O)C1CC=CCC1c1nnc(CSc2ccc(Cl)cc2)o1 (stereo not drawn) [AC4]

Source: publication PMC6405842, “Identification of a novel scaffold for a small molecule GPR139 receptor agonist” (Scientific Reports, 2019)
